Data on one molecule can be found in patent US20110014296A1, “Drug Delivery Nanodevice, its Preparation Method and Uses Thereof” (NATIONAL CHIAO TUNG UNIVERSITY, priority 2009, published 2011).

This assay relates to spontaneous SWDs of Long-Evans rats. The assay can be described thus: In vivo anti-epileptic therapy, spontaneous spike-wave discharges (SWDs). More on the design: species or system rat. To be noted: before and after application, ESM 28 mg/Kg i.p., ESM-SAIO and ESM-device 40 mg/Kg (FIG. 12). On the procedure: Adult male Long-Evans and Wistar rats were used in this study. All rats were kept in a sound-attenuated room under a 12:12 hr light-dark cycle (07:00-19:00 lights on) with food and water provided ad libitum. The experimental procedures were reviewed and approved by the Institutional Animal Care and Use Committee. Briefly, the recording electrodes were implanted under pentobarbital anesthesia (60 mg/kg, i.p.). Subsequently, the rat was placed in a standard stereotaxic apparatus. In total, six stainless steel screws were driven bilaterally into the skull overlying the frontal (A +2.0, L 2.0 with reference to the bregma) and occipital (A −6.0, L 2.0) regions of the cortex to record cortical field potentials. A ground electrode was implanted 2 mm caudal to lambda. Dental cement was applied to fasten the connection socket to the surface of the skull. Following suturing to complete the surgery, animals were given an antibiotic (chlortetracycline) and housed individually in cages for recovery. […] To confirm the cortical focus theory of SWDs, a pharmacological epileptic rat model, low-dose pentylenetetrazol (PTZ) (20 mg/kg, i.p.) in Wistar rats, was also used. […] In this experiment, 1-hour spontaneous brain activity before the treatment (baseline) and another 1-hour spontaneous brain activity 30 minutes after the treatment were recorded, respectively. […]

As to `CCC1(C)CC(=O)NC1=O` (centres unmarked) [ESM, ethosuximide], the SWD number entry is given as “significantly reduced” and the “total SWD duration” value was “significantly reduced”.
